# Results reported in patent US10082510B2, “SRC-2 use as metabolic biomarker for diagnosis and treatment of metastatic prostate cancer” (Baylor College of Medicine, priority 2014, dated 2018).
# How the values were obtained:
# Type in all cases: cell-based, human
# C4-2 and PC-3 cells [1] = test: Oxygen consumption rate (Seahorse XF24); conditions: C4-2 and PC-3 stable cells; oligomycin 25-40 min time frame, FCCP 45-65 min time frame
# Procedure: (A) Real-time measurement of basal and maximal oxygen consumption rate (OCR) in C4-2 stable cells—shNT, sh18 and sh19. (B, C) Basal and maximal OCR in C4-2 stable cells—shNT, sh18 and sh19 were measured in DMSO control (B) or FCCP-treated (C) cells cultured in presence of high glucose (11 mM)/low glutamine (0.2 mM) or low glucose (5 mM)/high glutamine (2 mM). […] Data are graphed as the mean±s.e.m. *P<0.05, **P<0.001 by Student's t test.
# (A) Real-time measurement of basal and maximal oxygen consumption rate (OCR) in PC-3 stable cells—shNT, sh18, and sh19. (B, C) Basal and maximal OCR in PC-3 stable cells—shNT, sh18, and sh19 were measured in DMSO control or FCCP-treated cells cultured in presence of high glucose (11 mM)/low glutamine (0.2 mM) or low glucose (5 mM)/high glutamine (2 mM). […] Data are graphed as the mean±s.e.m. *P<0.05, **P<0.001 by Student's t test.
# The oxygen consumption rate (OCR) was measured using a Seahorse Bioscience XF24 Extracellular Flux Analyzer according to manufacturer's protocol. Briefly, cells were seeded in triplicates at equal densities (25,000 cells per well) into XF24 tissue culture plates. […] Oxygen consumption was measured under basal conditions (DMSO), oligomycin and mitochondrial uncoupler trifluoromethoxy carbonyl cyanide phenyl 59ydrazine (FCCP) (2 mM) using the mito-stress kit (Seahorse Bioscience). […]
# C4-2 and PC-3 cells [2] = test: Cell growth assay (Cellglo); conditions: C4-2 and PC-3 shNT cells; BPTES 1 μM, 4 days
# Procedure: FIG. 6—SRC-2 is essential for prostate cancer cell survival. (A) Representative images depicting the growth of C4-2 stable cells—shNT, sh18 and sh19 in soft agar assay two weeks after plating. (B) Quantification of the total number of C4-2 stable cell colonies that survived after two weeks. (C) H&E stained sections of mouse lungs from experimental lung metastasis assay. Nude mice were injected with PC-3 cells stably expressing shNT, sh18 and sh19 via tail vein (n=7), and growth and survival of the cells in mouse lungs were analyzed after 5 weeks. (D) Quantification of Ki67 (antibody epitope reacts with human Ki67 protein) stained cells in the mouse lung sections from shNT, sh18 and sh19-injected animals. Refer Supplementary FIG. 14C. (E) Western blot analysis showing the expression levels of SRC-2, FASN, SCD and actin in C4-2 stable cells—shNT and sh19, and re-expression of SRC-2 in sh19 cells infected with Adv. SRC-2. Actin was used to normalize the protein loading. […]
# Cells were seeded in 96-well plates in complete medium, and after the cells attached to the bottom surface they were incubated in nutrient-stressed medium. The cell growth was measured using Cellglo kit (Promega) according to manufacturer's instructions. […]
# [3] = test system: SRC-2 protein in C4-2 cells; test: Western blot of SRC-2 protein level after kinase inhibitor treatment; conditions: for SRC-2 protein level compared to DMSO-treated cells: Torin 250 nM, 12 hours
# Procedure: FIG. 4—Glutamine stimulation induces mTORC1-dependent SRC-2 transcriptional activity. (A) Western blot analysis of FASN, SCD, SRC-2 and actin in C4-2 stable cells—shNT, sh18 and sh19 grown in high glucose (11 mM)/low glutamine (0.2 mM) or low glucose (5 mM)/high glutamine (2 mM). Actin was used as a control to normalize the protein loading. Semiquantitative levels of each band were analyzed by densitometry using UVP Vision Works LS software and relative values (compared to shNT) normalized to actin are indicated numerically under each lane. (B) C4-2 cells were cultured in presence of high glucose (11 mM)/low glutamine (0.2 mM) or low glucose (5 mM)/high glutamine (2 mM) and then treated with kinase inhibitors: BEZ-235 (1 uM); Rapamycin (100 nM); Torin (250 nM); and Wortmannin (250 nM). Western blot analyses were performed to measure the stability of SRC-2 protein. Semi-quantitative levels of each band were analyzed by densitometry using UVP Vision Works LS software and relative values (compared to DMSO) normalized to actin are indicated numerically under each lane. (C) Immunoprecipitation of HA-SRC-2 followed by Western immunoblot to detect the phosphorylation status of SRC-2 using phospho-serine/threonine antibody. Input lysates were obtained from C4-2 cells expressing Adv.GFP or Adv. SRC-2, and subsequently stimulated with increasing concentration of glutamine—[…] followed by treatment with DMSO or mTORC1 inhibitor-Torin (250 nM). Actin was used to normalize the input loading. Semiquantitative levels of phospho-SRC-2 were analyzed by densitometry using UVP Vision Works LS software and relative values (compared to lane 2) normalized to actin are indicated numerically under each lane. (D) PC-3 cells expressing either Adv.GFP or Adv. SRC-2 were transfected with FASN-luc construct and stimulated with high glucose (11 mM)/low glutamine (0.2 mM) or high glutamine (2 mM)/low glucose (5 mM) followed by treatment with DMSO or Torin (250 nM). Lucifrease assay was then performed to measure the FASN promoter activity and data were normalized to total protein. […]
# [4] = test system: SRC-2 protein stability in C4-2 cells; test: Cycloheximide protein stability assay; conditions: high glutamine (2.0 mM), cycloheximide 0.5 mM, Torin 250 nM
# Procedure: FIG. 14—Glutamine-dependent mTORC1 phosphorylation controls SRC-2 protein stability. (A) C4-2 cells were cultured in presence of low glutamine (0.2 mM) and high glutamine (2.0 mM) followed by treatment with cycloheximide (0.5 mM) for indicated time points. Western blot showing the total-level of SRC-2 and actin was used as a loading control. (B) C4-2 cells were cultured in presence of high glutamine (2.0 mM) followed by either treatment with DMSO and Torin. Cycloheximide (0.5 mM) was then added to the cells for indicated time points. Western blot showing the total-level of SRC-2 and actin was used as a loading control.
# SRC-2 protein stability was studied by cycloheximide treatment experiments in C4-2 cells for different time points as described previously (Li C, Jo A, et al, 2011). C4-2 cells were cultured in low glutamine (0.2 mM) or high glutamine (2.0 mM) followed by treatment with cycloheximide (0.5 mM). For Torin treatment, C4-2 cells cultured in high glutamine were either treated with DMSO (vehicle-control) or Torin (250 nM) prior to cyclohexamide treatments. Cells were lysed followed by Western immunoblotting.
# [5] = test system: SRC-2 serine/threonine phosphorylation in C4-2 cells; test: Immunoprecipitation of HA-SRC-2 and phospho-serine/threonine immunoblot; conditions: C4-2 cells expressing Adv. SRC-2 (HA-SRC-2), glutamine stimulated; Torin 250 nM, 4 hours pre-treatment
# Procedure: (§1) FIG. 4—Glutamine stimulation induces mTORC1-dependent SRC-2 transcriptional activity. (A) Western blot analysis of FASN, SCD, SRC-2 and actin in C4-2 stable cells—shNT, sh18 and sh19 grown in high glucose (11 mM)/low glutamine (0.2 mM) or low glucose (5 mM)/high glutamine (2 mM). Actin was used as a control to normalize the protein loading. Semiquantitative levels of each band were analyzed by densitometry using UVP Vision Works LS software and relative values (compared to shNT) normalized to actin are indicated numerically under each lane. (B) C4-2 cells were cultured in presence of high glucose (11 mM)/low glutamine (0.2 mM) or low glucose (5 mM)/high glutamine (2 mM) and then treated with kinase inhibitors: BEZ-235 (1 uM); Rapamycin (100 nM); Torin (250 nM); and Wortmannin (250 nM). Western blot analyses were performed to measure the stability of SRC-2 protein. Semi-quantitative levels of each band were analyzed by densitometry using UVP Vision Works LS software and relative values (compared to DMSO) normalized to actin are indicated numerically under each lane. […] Semiquantitative levels of phospho-SRC-2 were analyzed by densitometry using UVP Vision Works LS software and relative values (compared to lane 2) normalized to actin are indicated numerically under each lane. […]
# SRC-2 mRNA in C4-2 cells = test: Quantitative real time PCR of SRC-2 messenger after kinase inhibitor treatment; conditions: Torin 250 nM
# Procedure: FIG. 13—Glutamine stimulation activates SRC-2 transcriptional functions in an mTORC1 dependent manner. (A) Quantitative real time PCR analysis of FASN, SCD and SRC-2 in C4-2 cells were treated with siGFP (control) or siSRC-2 and cultured in nutrient stressed conditions—high glucose (11 mM)/low glutamine (0.2 mM) or low glucose (5 mM)/high glutamine (2 mM). (B) Quantitative real time PCR analysis of SRC-2 in C4-2 cells expressing siGFP (control) or siSRC-2 and then treated with BEZ-235 (1 uM); Rapamycin (100 nM); Torin (250 nM); and Wortmannin (250 nM). (C) Western blot analysis showing the expression of phospho-S6K (p-S6K), phospho-4EBP1 (p-4EBP1) and actin in C4-2 cells stimulated with increasing concentration of glutamine followed by treatment with DMSO or mTORC1 inhibitor-Torin. Actin was used to normalize the protein loading.
# Total mRNA was isolated from prostate cancer cells, tissues and tumors using the RNeasy Kit (QIAGEN). Reverse transcription was carried out using Superscript VILO cDNA synthesis kit (Invitrogen, CA) according to the manufacturer's instructions. For gene expression analysis, qPCR was performed using the Taqman system (Roche) with sequence-specific primers and the Universal Probe Library (Roche). […] Data was analyzed using the comparative Ct method (ΔΔCt). […] Data obtained was analyzed using RT^2 Profiler™ PCR Array Data Analysis software (SA Bioscineces, CA). […]
# [6] = test system: SRC-2 driven FASN-promoter activity in PC-3 cells; test: FASN-luc luciferase reporter assay; conditions: PC-3 cells expressing Adv. SRC-2, high glutamine (2 mM)/low glucose (5 mM); Torin 250 nM
# Procedure: as §1, with “(B) C4-2 cells were cultured in presence of high glucose (11 mM)/low glutamine (0.2 mM) or low glucose (5 mM)/high glutamine (2 mM) and then treated with kinase inhibitors: BEZ-235 (1 uM); Rapamycin (100 nM); Torin (250 nM); and Wortmannin (250 nM). Western blot analyses were performed to measure the stability of SRC-2 protein.” left out
# Luciferase assays were performed using Luciferase Reporter Assay (Promega) and a Berthold 96 well plate reader. […]
# Luciferase promoter constructs were obtained from following sources: FASN-Addgene, SCD-Switchgear genomics and ZIP1—Peter Makhov (Fox Chase Cancer Center). […] Cells were harvested two days after transfection and luciferase assay performed using a Luciferase Reporter Assay (Promega) and a Berthold 96 well plate reader. […]
# [7] = test system: recruitment of SRC-2 to the FASN and SCD promoters in C4-2 cells; test: ChIP of SRC-2 on FASN and SCD promoters; conditions: glutamine stimulation (2 mM), Torin 250 nM
smiles,measurement,setting,value
CC[C@H]1/C=C/C=C/C[C@@H](C)[C@H](O)[C@@](C)(O)C(=O)[C@@H](C)[C@H](O)[C@@H](C)C(=O)[C@@H](C)[C@H](O)[C@@H](C)/C=C/C(=O)O[C@@H]2[C@H](C)[C@H](CC1)O[C@]1(CC[C@H](C)[C@H](C[C@@H](C)O)O1)[C@H]2C [oligomycin],Oxygen consumption rate (OCR),C4-2 and PC-3 cells [1],decreased the oxygen consumption
O=C(Cc1ccccc1)Nc1nnc(CCSCCc2nnc(NC(=O)Cc3ccccc3)s2)s1 [BPTES],Prostate cancer cell growth compared to DMSO,C4-2 and PC-3 cells [2],robust decrease
"N#CC(C#N)=NNc1ccc(OC(F)(F)F)cc1 [FCCP, Carbonyl cyanide 4-(trifluoromethoxy)phenylhydrazone]",Oxygen consumption rate (OCR),C4-2 and PC-3 cells [1],dramatically enhanced
Cn1c(=O)n(-c2ccc(C(C)(C)C#N)cc2)c2c3cc(-c4cnc5ccccc5c4)ccc3ncc21 [BEZ-235],SRC-2 protein stability,"[3]; either culture condition (high glucose/low glutamine or low glucose/high glutamine), BEZ-235 1 uM",failed to show any effect
CCC(=O)N1CCN(c2ccc(-n3c(=O)ccc4cnc5ccc(-c6cnc7ccccc7c6)cc5c43)cc2C(F)(F)F)CC1 [Torin],Glutamine-increased SRC-2 protein stability (cycloheximide time course),[4],completely suppressed
same,Glutamine-induced SRC-2-serine/threonine phosphorylation,[5],reversed
same,SRC-2 messenger expression,SRC-2 mRNA in C4-2 cells,without any appreciable change
same,SRC-2 protein level compared to DMSO-treated cells,"[3]; glutamine-stimulated (low glucose 5 mM/high glutamine 2 mM), Rapamycin 100 nM",down-regulated
same,SRC-2 protein level compared to DMSO-treated cells,"[3]; high glucose (11 mM)/low glutamine (0.2 mM), Wortmannin 250 nM",not observed
same,Glutamine dependent SRC-2 driven FASN-promoter activity,[6],significantly blocked
same,Glutamine dependent recruitment of SRC-2 to the FASN and SCD promoters,[7],significantly blocked
